{
  "source": "paper PMC10884080",
  "about": "“A progesterone derivative linked to a stable phospholipid activates breast cancer cell response without leaving the cell membrane” (Cellular and Molecular Life Sciences: CMLS, 2024)",
  "target": "T1, progesterone receptor (PR, PRb) (Homo sapiens, UniProt P06401)",
  "T1 construct": "gene PGR; wild type PRb expressed in PR-negative U2OS or TYML cells",
  "T1 sequence (P06401 1-933)": "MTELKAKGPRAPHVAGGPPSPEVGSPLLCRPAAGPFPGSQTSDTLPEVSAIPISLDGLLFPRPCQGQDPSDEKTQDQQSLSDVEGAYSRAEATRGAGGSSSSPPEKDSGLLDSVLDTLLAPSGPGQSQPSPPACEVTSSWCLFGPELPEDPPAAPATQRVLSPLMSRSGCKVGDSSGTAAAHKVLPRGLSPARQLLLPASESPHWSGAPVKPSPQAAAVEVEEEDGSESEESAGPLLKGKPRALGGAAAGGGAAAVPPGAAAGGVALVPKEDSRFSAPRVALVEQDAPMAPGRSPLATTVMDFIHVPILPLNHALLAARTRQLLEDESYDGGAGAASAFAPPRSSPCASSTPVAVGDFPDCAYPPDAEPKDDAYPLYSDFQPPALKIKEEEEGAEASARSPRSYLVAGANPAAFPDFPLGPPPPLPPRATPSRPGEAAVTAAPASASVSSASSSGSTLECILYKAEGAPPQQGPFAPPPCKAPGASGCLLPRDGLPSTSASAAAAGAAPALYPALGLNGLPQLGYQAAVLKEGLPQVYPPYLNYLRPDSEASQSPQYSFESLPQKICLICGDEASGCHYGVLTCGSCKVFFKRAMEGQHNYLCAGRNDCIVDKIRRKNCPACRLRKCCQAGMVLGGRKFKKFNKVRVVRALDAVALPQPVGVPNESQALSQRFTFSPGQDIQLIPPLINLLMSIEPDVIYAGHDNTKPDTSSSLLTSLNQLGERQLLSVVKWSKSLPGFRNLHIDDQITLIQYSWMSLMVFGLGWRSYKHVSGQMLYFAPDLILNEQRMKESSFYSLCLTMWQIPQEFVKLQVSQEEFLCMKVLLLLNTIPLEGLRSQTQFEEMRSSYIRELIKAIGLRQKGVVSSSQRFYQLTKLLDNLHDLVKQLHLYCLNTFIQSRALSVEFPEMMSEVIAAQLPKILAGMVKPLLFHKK",
  "assay": "PR S294 phosphorylation and MMTV-luc/target gene induction by […] P4 in PR-negative cells transfected with wild type PRb",
  "type": "cell-based",
  "data": [
    {"smiles": "CC(=O)[C@H]1CC[C@H]2[C@@H]3CCC4=CC(=O)CC[C@]4(C)[C@H]3CC[C@]12C", "note": "[P4, progesterone]", "values": [
      {"measurement": "PR S294 phosphorylation and MMTV-luc/target gene induction by 10 nM P4 in PR-neg", "result": "only the wtPR-expressing cells activated the ERK kinase and led to PR phosphorylation"}
    ]}
  ]
}
